pIC50: −log10 of the molar value.
Test system: 935938-334-R-J1-PDC complex spheroid viability
Experiment: Anticancer human tumor 935938-334-R-J1-PDC patient-derived small intestine adenocarcinoma cell line growth inhibition [POLQ]
Details: for pIC50: curve of first compound; for viability, T/C: stronger effect = lower value
In short: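 Three-cell-type spheroids modelling solid tumor plus stroma served as the readout system; POL inhibitors were tested individually and in combination, concentration ranges set by clinical Cmax where known.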

[1] = second compound 0.0316 µM, first compound 0.0316 µM
[2] = second compound 0.0316 µM, first compound 0.1 µM
[3] = second compound 0.0316 µM, first compound 0.316 µM
[4] = second compound 0.0316 µM, first compound 1 µM
[5] = second compound 0.0316 µM, first compound 3.16 µM
[6] = second compound 0.0316 µM, first compound 10 µM
[7] = second compound 0.1 µM, first compound 0.0316 µM
[8] = second compound 0.1 µM, first compound 0.1 µM
[9] = second compound 0.1 µM, first compound 0.316 µM
[10] = second compound 0.1 µM, first compound 1 µM
[11] = second compound 0.1 µM, first compound 3.16 µM
[12] = second compound 0.1 µM, first compound 10 µM
[13] = second compound 0.316 µM, first compound 0.0316 µM
[14] = second compound 0.316 µM, first compound 0.1 µM
[15] = second compound 0.316 µM, first compound 0.316 µM
[16] = second compound 0.316 µM, first compound 1 µM
[17] = second compound 0.316 µM, first compound 3.16 µM
[18] = second compound 0.316 µM, first compound 10 µM
[19] = second compound 1 µM, first compound 0.0316 µM
[20] = second compound 1 µM, first compound 0.1 µM
[21] = second compound 1 µM, first compound 0.316 µM
[22] = second compound 1 µM, first compound 1 µM
[23] = second compound 1 µM, first compound 3.16 µM
[24] = second compound 1 µM, first compound 10 µM
[25] = second compound 3.16 µM, first compound 0.0316 µM
[26] = second compound 3.16 µM, first compound 0.1 µM
[27] = second compound 3.16 µM, first compound 0.316 µM
[28] = second compound 3.16 µM, first compound 1 µM
[29] = second compound 3.16 µM, first compound 3.16 µM
[30] = second compound 3.16 µM, first compound 10 µM
[31] = second compound 10 µM, first compound 0.0316 µM
[32] = second compound 10 µM, first compound 0.1 µM
[33] = second compound 10 µM, first compound 0.316 µM
[34] = second compound 10 µM, first compound 1 µM
[35] = second compound 10 µM, first compound 3.16 µM
[36] = second compound 10 µM, first compound 10 µM
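Also: spheroids exposed to drugs for seven days before viability read.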
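For viability, T/C in this document: 100% = DMSO vehicle control wells.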

## CCCS(=O)(=O)Nc1ccc(F)c(C(=O)c2c[nH]c3ncc(-c4ccc(Cl)cc4)cc23)c1F + COC1C(OC(N)=O)C(O)C(Oc2ccc3c(O)c(NC(=O)c4ccc(O)c(CC=C(C)C)c4)c(=O)oc3c2C)OC1(C)C
Second compound 0.0316 µM
  pIC50: 5.04
Second compound 0.1 µM
  pIC50: 5.07
Second compound 0.316 µM
  pIC50: 5.03
Second compound 1 µM
  pIC50: 5.07
Second compound 3.16 µM
  pIC50: 5.01
Second compound 10 µM
  pIC50: 5.00
[1]
  viability, T/C: 96.1%
[2]
  viability, T/C: 142%
[3]
  viability, T/C: 118%
[4]
  viability, T/C: 111%
[5]
  viability, T/C: 101%
[6]
  viability, T/C: 45.4%
[7]
  viability, T/C: 113%
[8]
  viability, T/C: 80.5%
[9]
  viability, T/C: 103%
[10]
  viability, T/C: 110%
[11]
  viability, T/C: 134%
[12]
  viability, T/C: 40.2%
[13]
  viability, T/C: 73.6%
[14]
  viability, T/C: 98.8%
[15]
  viability, T/C: 119%
[16]
  viability, T/C: 121%
[17]
  viability, T/C: 125%
[18]
  viability, T/C: 45.9%
[19]
  viability, T/C: 116%
[20]
  viability, T/C: 117%
[21]
  viability, T/C: 101%
[22]
  viability, T/C: 131%
[23]
  viability, T/C: 111%
[24]
  viability, T/C: 40.1%
[25]
  viability, T/C: 114%
[26]
  viability, T/C: 107%
[27]
  viability, T/C: 120%
[28]
  viability, T/C: 147%
[29]
  viability, T/C: 111%
[30]
  viability, T/C: 48.7%
[31]
  viability, T/C: 104%
[32]
  viability, T/C: 97.6%
[33]
  viability, T/C: 130%
[34]
  viability, T/C: 129%
[35]
  viability, T/C: 127%
[36]
  viability, T/C: 49.6%

## O=C(c1cc(Cc2n[nH]c(=O)c3ccccc23)ccc1F)N1CCN(C(=O)C2CC2)CC1 + Cc1cccc(N(C)C(=O)C2C(O)CCN2c2nc(C)cc(C(F)(F)F)c2C#N)c1
Second compound 0.0316 µM
  pIC50: < 5.00
Second compound 0.1 µM
  pIC50: < 5.00
Second compound 0.316 µM
  pIC50: < 5.00
Second compound 1 µM
  pIC50: < 5.00
Second compound 3.16 µM
  pIC50: < 5.00
Second compound 10 µM
  pIC50: 5.04
[1]
  viability, T/C: 72.1%
[2]
  viability, T/C: 93.2%
[3]
  viability, T/C: 59.6%
[4]
  viability, T/C: 96.7%
[5]
  viability, T/C: 74.1%
[6]
  viability, T/C: 65.8%
[7]
  viability, T/C: 76.3%
[8]
  viability, T/C: 81%
[9]
  viability, T/C: 73.3%
[10]
  viability, T/C: 97.3%
[11]
  viability, T/C: 71.1%
[12]
  viability, T/C: 63.7%
[13]
  viability, T/C: 92.8%
[14]
  viability, T/C: 108%
[15]
  viability, T/C: 89.8%
[16]
  viability, T/C: 89.6%
[17]
  viability, T/C: 69.4%
[18]
  viability, T/C: 58.1%
[19]
  viability, T/C: 89.7%
[20]
  viability, T/C: 86.8%
[21]
  viability, T/C: 135%
[22]
  viability, T/C: 85.1%
[23]
  viability, T/C: 78.1%
[24]
  viability, T/C: 69.9%
[25]
  viability, T/C: 88.5%
[26]
  viability, T/C: 99.2%
[27]
  viability, T/C: 97.5%
[28]
  viability, T/C: 85.2%
[29]
  viability, T/C: 68.8%
[30]
  viability, T/C: 54.5%
[31]
  viability, T/C: 95.3%
[32]
  viability, T/C: 78.7%
[33]
  viability, T/C: 87.2%
[34]
  viability, T/C: 88.2%
[35]
  viability, T/C: 82.3%
[36]
  viability, T/C: 47.5%

## CC[C@@]1(O)C(=O)OCc2c1cc1n(c2=O)Cc2cc3c(CN(C)C)c(O)ccc3nc2-1 + Cc1cccc(N(C)C(=O)C2C(O)CCN2c2nc(C)cc(C(F)(F)F)c2C#N)c1
Second compound 0.0316 µM
  pIC50: < 7.00
Second compound 0.1 µM
  pIC50: < 7.00
Second compound 0.316 µM
  pIC50: < 7.00
Second compound 1 µM
  pIC50: 7.04
Second compound 3.16 µM
  pIC50: < 7.00
Second compound 10 µM
  pIC50: < 7.00
Second compound 0.0316 µM, first compound 0.000316 µM
  viability, T/C: 123%
Second compound 0.0316 µM, first compound 0.001 µM
  viability, T/C: 111%
Second compound 0.0316 µM, first compound 0.00316 µM
  viability, T/C: 95.1%
Second compound 0.0316 µM, first compound 0.01 µM
  viability, T/C: 90.4%
[1]
  viability, T/C: 70.6%
[2]
  viability, T/C: 69.2%
Second compound 0.1 µM, first compound 0.000316 µM
  viability, T/C: 105%
Second compound 0.1 µM, first compound 0.001 µM
  viability, T/C: 113%
Second compound 0.1 µM, first compound 0.00316 µM
  viability, T/C: 109%
Second compound 0.1 µM, first compound 0.01 µM
  viability, T/C: 128%
[7]
  viability, T/C: 68.5%
[8]
  viability, T/C: 82.7%
Second compound 0.316 µM, first compound 0.000316 µM
  viability, T/C: 112%
Second compound 0.316 µM, first compound 0.001 µM
  viability, T/C: 102%
Second compound 0.316 µM, first compound 0.00316 µM
  viability, T/C: 118%
Second compound 0.316 µM, first compound 0.01 µM
  viability, T/C: 88%
[13]
  viability, T/C: 89.9%
[14]
  viability, T/C: 51.2%
Second compound 1 µM, first compound 0.000316 µM
  viability, T/C: 126%
Second compound 1 µM, first compound 0.001 µM
  viability, T/C: 115%
Second compound 1 µM, first compound 0.00316 µM
  viability, T/C: 92.9%
Second compound 1 µM, first compound 0.01 µM
  viability, T/C: 111%
[19]
  viability, T/C: 79.9%
[20]
  viability, T/C: 46.3%
Second compound 3.16 µM, first compound 0.000316 µM
  viability, T/C: 101%
Second compound 3.16 µM, first compound 0.001 µM
  viability, T/C: 92.9%
Second compound 3.16 µM, first compound 0.00316 µM
  viability, T/C: 112%
Second compound 3.16 µM, first compound 0.01 µM
  viability, T/C: 112%
[25]
  viability, T/C: 68.4%
[26]
  viability, T/C: 54%
Second compound 10 µM, first compound 0.000316 µM
  viability, T/C: 97%
Second compound 10 µM, first compound 0.001 µM
  viability, T/C: 95.3%
Second compound 10 µM, first compound 0.00316 µM
  viability, T/C: 84.7%
Second compound 10 µM, first compound 0.01 µM
  viability, T/C: 84.5%
[31]
  viability, T/C: 101%
[32]
  viability, T/C: 55.2%

Source: PubChem BioAssay AID1963829 (Molecular Pharmacology Branch, DTP, NCI, 2024)
